# Columns and labels:
# advanced ESCC = assay: Phase Ib/II clinical trial, anti-tumor activity study (RECIST v1.1), with biomarker subgroups; type: in vivo, human
# Experimental: From Mar. 9, 2017 to Aug.
# PD-L1 was detected in formalin-fixed paraffin-embedded (FFPE) tumor tissue samples by immunohistochemistry (IHC) methods and verified on the VENTANA Benchmark Ultra system at the clinical center laboratory (Q2 laboratory, Beijing). The immunohistochemistry detection of PD-L1 was performed using the Spring Bioscience (Roche) rabbit anti-human PD-L1 monoclonal antibody (clone SP142, Cat No: M4422). The expression of PD-L1 on tumor cells (TCs) and tumor infiltrating immune cells (ICs) was assessed by certified pathologists using stained tumor tissue. The PD-L1 positive status is defined as the presence of tumor cells with membrane staining intensity ≥1% or the presence of PD-LI staining intensity of tumor infiltrating immune cells covering ≥1% of related, continuous pen-cancerous stromal tumor area in the tumor occupied by tumor cells.
# During the clinical trial described in Example 1, tumor biopsy samples from 50 subjects were subjected to whole exome sequencing (WES). TMB was determined by analyzing somatic mutations within coding regions of the human genome.
# CT-26 cells = assay: Inhibitory effect on tumor growth in CT-26 cell-transplanted B-hPD-1 mice; type: in vivo
# Experimental: CT-26 cells were seeded subcutaneously on the right side of hPD-1 humanized female mice at a concentration of 2.5×10^5 cells/0.1 mL, and the mice were randomly grouped by tumor volume when tumors grew to about 93 mm^3 with 7 mice per group, for a total of 4 groups:
# G1: Anti-KLH hIgG4 (1 mg/kg) negative control group;
# G3: palbociclib (100 mg/kg);
# The experiment was ended 11 days after the first administration. Tumor volume and body weight of mice were measured and recorded twice a week. At the end of the experiment, animals were euthanized and tumor growth inhibition (TGITv%) was calculated.
# [1] = 59 patients, investigator-assessed RECIST v1.1
# [2] = patients with 11q13 amplification (n=24)
# [3] = patients with low or no PD-L1 expression (5% cutoff)
# [4] = patients without 11q13 amplification (n=26)
# [5] = subjects with more than 5% PD-L1 expression
# [6] = without vs. with 11q13 amplification
substance,measurement,setting,value
toripalimab: humanized IgG4 anti-PD-1 mAb comprising light and heavy chain amino acid sequences set forth in SEQ ID NOs: 9 and 10 (WO2014206107),ORR confirmed,advanced ESCC; 59 patients,15.3%
same,DCR,"advanced ESCC; 59 patients, RECIST v1.1",47.5%
same,Optimal response rate,"advanced ESCC; 59 patients, RECIST v1.1",18.6%
same,CR,advanced ESCC; [1],1 case
same,PR (including 2 cases of undiagnosed PR),advanced ESCC; [1],10 cases
same,Subjects who had died,"advanced ESCC; 59 subjects, as of Dec. 31, 2018",67.8%
same,Median PFS,advanced ESCC; PD-L1 negative subjects,2.0 months
same,ORR,advanced ESCC; PD-L1 negative subjects,18.4%
same,OS,advanced ESCC; PD-L1 negative subjects,6.9 months
same,OS,advanced ESCC; PD-L1 positive patients,6.7 months
same,ORR,"advanced ESCC; PD-L1 positive patients (≥1% TC or IC, SP142 IHC)",15.8%
same,Median PFS,advanced ESCC; PD-L1 positive subjects,3.4 months
same,OR,advanced ESCC; TMB equal to or greater than 12 mutations/Mb (n=11),18.2%
same,OR,advanced ESCC; TMB less than 12 mutations/Mb (n=36),19.4%
same,Optimal response (%),"advanced ESCC; Total, 59 people",18.6%
same,Mean response time,advanced ESCC; all patients,1.8 months
same,Median OS,advanced ESCC; all patients,6.9 months
same,Median PFS,advanced ESCC; all patients,2.1 months
same,Median duration of response,advanced ESCC; all patients,11.2 months
same,Subjects with arbitrary size reduction in target lesions relative to baseline,advanced ESCC; all patients,42.4%
same,OS,advanced ESCC; high TMB (≥12),11.5 months
same,PFS,advanced ESCC; high TMB (≥12),4.0 months
same,OS,advanced ESCC; low TMB (<12),6.7 months
same,PFS,advanced ESCC; low TMB (<12),1.9 months
same,Median OS,advanced ESCC; patients with 11q13 amplification,5.6 months
same,Objective response rate,advanced ESCC; [2],42
same,PFS,advanced ESCC; [2],1.0 month
same,DCR,advanced ESCC; [3],42.3%
same,ORR,advanced ESCC; [3],15.4%
same,Median OS,advanced ESCC; patients without 11q13 amplification,11.5 months
same,Objective response rate,advanced ESCC; [4],30.8%
same,PFS,advanced ESCC; [4],3.7 months
same,Optimal response (%),"advanced ESCC; subgroup Age >60, 29 people",20.7%
same,Optimal response (%),"advanced ESCC; subgroup Age ≤60, 30 people",16.7%
same,Optimal response (%),"advanced ESCC; subgroup ECOG 0, 5 people",40.0%
same,Optimal response (%),"advanced ESCC; subgroup ECOG 1, 54 people",16.7%
same,Optimal response (%),"advanced ESCC; subgroup LDH >ULN, 14 people",28.6%
same,Optimal response (%),"advanced ESCC; subgroup LDH Normal, 45 people",15.6%
same,Optimal response (%),"advanced ESCC; subgroup Liver metastasis No, 43 people",18.6%
same,Optimal response (%),"advanced ESCC; subgroup Liver metastasis Yes, 16 people",18.8%
same,Optimal response (%),"advanced ESCC; subgroup Prior treatment 1, 13 people",15.4%
same,Optimal response (%),"advanced ESCC; subgroup Prior treatment 2, 19 people",15.8%
same,Optimal response (%),"advanced ESCC; subgroup Prior treatment 3+, 27 people",22.2%
same,Optimal response (%),"advanced ESCC; subgroup Sex Female, 7 people",14.3%
same,Optimal response (%),"advanced ESCC; subgroup Sex Male, 52 people",19.2%
same,Optimal response (%),"advanced ESCC; subgroup Tumor volume (baseline target lesion) >100 mm, 13 people",15.4%
same,Optimal response (%),"advanced ESCC; subgroup Tumor volume (baseline target lesion) ≤100 mm, 46 people",19.6%
same,DCR,advanced ESCC; [5],100%
same,ORR,advanced ESCC; [5],40%
same,HR for OS,advanced ESCC; [6],0.60
same,HR for PFS,advanced ESCC; [6],0.47
same,TGI (%),"CT-26 cells; 11 days after the first administration, toripalimab 1 mg/kg i.p., palbociclib 100 mg/kg orally",8.0%
same,Tumor volume 11 days after the first administration,"CT-26 cells; mean ± standard error, toripalimab 1 mg/kg i.p. twice a week, palbociclib 100 mg/kg orally once a day, 7 mice per group",2519 ± 320 mm^3

# Source: patent US20220154296A1, “USE OF ANTI-PD-1 ANTIBODY IN PREPARATION OF MEDICAMENT FOR TREATING SOLID TUMORS” (Shanghai Junshi Biosciences Co., Ltd., priority 2019, published 2022)
